Measured values reported in patent US12622898B2, “Methods and compositions for improving bone marrow hematopoietic functions” (SUN YAT-SEN UNIVERSITY, priority 2019, dated 2026).
“Also recorded” adds a separate entry of the source.

What was measured:
[1] = system: HSPCs (LT-HSC, ST-HSC, MPP, CD150HSC); assay: ABC294640 treatment after 5 FU chemotherapeutic stress: HSPC numbers and ROS; format: in vivo, mouse; conditions: vs vehicle
Excerpt: (§1) B6N.129S6-Sphk1tm1Rlp/J (Sphk1Δ/Δ) and B6N.129S6-Sphk2tm1Rlp/J (Sphk2Δ/Δ) mice were obtained from the Jackson Laboratory. To achieve tissue-specific deletion of Sphk2, the Sphk2^flox/flox mice were crossed with Vav-Cre transgenic mice. Sphk2^flox/flox mice was constructed by Cyagen Biosciences Inc. Briefly, linearized targeting vector was electroporated into embryonic stem (ES) cells and positive clones were identified by Southern blotting and injected into C57BL/6 blastocysts followed by chimera production to obtain germline transmission. The Frt-flanked Neo cassette was subsequently removed by mating with Flpe mice. 2-month-old mice or more than 20-month old for aging we used as indicated. 5 FU (Sigma-Aldrich) was injected once or once a week for survival curve as indicated in the tail vein at 150 μg/g body weight. Sphk2 inhibitor ABC294640 (Target Molecule Corp T6750) and PDK inhibitor Sodium dichloroacetate (DCA) (Selleck Chemicals S8615) were intraperitoneal injected at 25 mg/kg. […] Animals were randomly included in the experiments according to genotyping results as a mix of male and female. All animal experiments were performed according to protocols approved by the institutional animal care and use committee.
(§2) For phenotype analysis and hematopoietic purification, hematopoietic cells were harvested from bone marrow (femur and tibia). For cell surface phenotyping, a lineage cocktail (Lin, phycoerythrin (PE)-Cy5) was used, including anti-CD3 (145-2C11), anti-CD4 (RM4-5), anti-CD8 (53-6.7), anti-Mac-1 (M1/70), anti-Gr1 (RB6-8C5), anti-B220 (RA3-6B2), anti-IgM (11/41) and anti-TER119 (TER-119) (100 ng antibody cocktail per million bone marrow cells, Biolegend). Monoclonal antibodies to SCA1 (D7, Biolegend), c-KIT (2B8, Biolegend), FLK2 (A2F10, Biolegend), CD34 (RAM34, eBioscience), CD48 (HM48-1, Biolegend), CD41 (MWReg30, eBioscience), CD150 (TC15-12F12.2, BioLegend), CD16/32 (93, Biolegend), IL-7R (A7R34, Biolegend) (all used as 50 ng per million bone marrow cells) were also used where indicated.
(§3) The cells were further incubated with 0.1 ug/uL DAPI (1306, Thermo Scientific) for 30 min at room temperature. For apoptosis and ROS analysis, the cells were stained by AnnexinV or DCFDA (D6883, Sigma-Aldrich).
(§4) Cell sorting and analysis were performed using an Attune NxT analyzer (Thermo Fisher Scientific) or InFlux Cell Sorter (BD Biosciences). Data analysis was performed using FlowJo software.

aged HSPCs = assay: ABC294640 treatment of aged mice to attenuate HSC aging; format: in vivo, mouse
Excerpt: as §1, §2
For lineage analysis of peripheral blood, monoclonal antibodies to CD45.1 (A20, eBioscience), CD45.2 (104, Biolegend), CD3, B220, Mac-1 and Gr1 were used.
(§5) For cell cycle, DNA damage, the cells were fixed, permeabilized and stained by anti-Ki67 (16A8, Biolegend).
as §3
(§6) Bone marrow cells were diluted to the indicated concentration in PBS and were seeded into methylcellulose medium M3434 (StemCell Technologies) for CFU-GM, CFU-GEMM, and BFU-E colony formation assays according to the manufacturer's

[2] = system: human HSCs (reconstitution in NSG mice); assay: Transplantation of ABC294640 treated human cord blood HSCs into NSG mice; format: in vivo, mouse
Procedure: Or, in example 14, for lineage analysis of peripheral blood, monoclonal antibodies to anti-hCD45 (HI-30, eBioscience), anti-mCD45 (30-F11, Biolegend), anti-hCD33 (human myeloid cells) (WM53, eBioscience), anti-hCD19 (human B cells) (HIB19, eBioscience), anti-hCD3 (human T cells) (UCHT1, eBioscience) were used. Every 4 weeks after transplantation, peripheral blood was collected from the submandibular vein. Hematopoietic repopulation was measured from donor-derived blood cells (CD45.2) or human-derived blood cells (human CD45). Human cord blood cells (2×10^5) were cultured in 96-round-well plate with Stem Span media (9650, Stem Cell Technologies) supplemented with SCF (10 ng per ml), TPO (20 ng per ml) for two weeks. The culture media was supplemented with vehicle or ABC294640 (1 μM, Target Molecule Corp […]). After culture for two weeks, the culture product was transplanted into irradiated (2Gy) 6-12 weeks old NSG mice via the tail. No mice were excluded unless they died during the 16-week-observations. All animal experiments were performed according to protocols approved by the institutional animal care and use committee.

[3] = system: donor derived HSPCs, white blood cells and platelets; assay: ABC294640 treatment of recipients after bone marrow transplantation: hematopoietic reconstitution; format: in vivo, mouse; conditions: vs vehicle
Excerpt: as §1
(§7) 2.0×10^5 CD45.2 bone marrow cells and 2.0×10^5 CD45.1 rescue bone marrow cells were transplanted into lethally irradiated CD45.1 recipients. Adult recipient mice (CD45.1) were irradiated with an Orthovoltage X-ray source delivering approximately in two equal doses of 4.5 Gy at least 3 hours apart. For secondary or tertiary transplantation, bone marrow cells from each recipient were injected into one or two irradiated new recipient mouse (1×10^6 per recipient, depending on the number of recipients) during each round of transplantation.
1×10^6 bone marrow cells were transplanted into lethally irradiated recipients, and the recipients were subjected to ABC294640 treatment or vehicle control (FIG. 67).

[4] = Survival of C57BL/6J mice after serial 5 FU challenges with ABC294640 treatment; format: in vivo, mouse; conditions: serial 5 FU every 7 days, ABC294640 every other day; vs control
Excerpt: B6N.129S6-Sphk1tm1Rlp/J (Sphk1Δ/Δ) and B6N.129S6-Sphk2tm1Rlp/J (Sphk2Δ/Δ) mice were obtained from the Jackson Laboratory. To achieve tissue-specific deletion of Sphk2, the Sphk2^flox/flox mice were crossed with Vav-Cre transgenic mice. Sphk2^flox/flox mice was constructed by Cyagen Biosciences Inc. Briefly, linearized targeting vector was electroporated into embryonic stem (ES) cells and positive clones were identified by Southern blotting and injected into C57BL/6 blastocysts followed by chimera production to obtain germline transmission. The Frt-flanked Neo cassette was subsequently removed by mating with Flpe mice. 2-month-old mice or more than 20-month old for aging we used as indicated. 5 FU (Sigma-Aldrich) was injected once or once a week for survival curve as indicated in the tail vein at 150 μg/g body weight. Sphk2 inhibitor ABC294640 (Target Molecule Corp T6750) and PDK inhibitor Sodium dichloroacetate (DCA) (Selleck Chemicals S8615) were intraperitoneal injected at 25 mg/kg. […]
Data are expressed as means±s.d. For all experiments except determination of survival, data were analyzed by Student's t test, and differences were considered statistically significant if P<0.05. The survival of the two groups were analyzed using a log-rank test, and differences were considered statistically significant if P<0.05. […]

[5] = system: human cord blood HSCs (CB-HSCs, CD34+CD38-CD45RA-CD49f+); assay: Ex vivo culture of human cord blood cells with ABC294640; format: cell-based; conditions: 2-week culture, ABC294640 1 μM; vs vehicle
Procedure: For phenotype analysis of human cord blood HSCs (CB-HSCs, CD34^+CD38-CD45RA-CD49f^+), cell surface phenotyping, anti-hCD34 (581), anti-hCD38 (HIT2), anti-hCD45RA (HI100) and anti-hCD49f (GOH3) (100 ng antibody cocktail per million cord blood cells, Biolegend) were used. Human cord blood cells (2×10^5) were cultured in 96-round-well plate with Stem Span media (9650, Stem Cell Technologies) supplemented with SCF (10 ng per ml), TPO (20 ng per ml) for two weeks. The culture media was supplemented with vehicle or ABC294640 (1 μM, Target Molecule Corp […]). After culture for two weeks, the culture product was transplanted into irradiated (2Gy) 6-12 weeks old NSG mice via the tail. No mice were excluded unless they died during the 16-week-observations. All animal experiments were performed according to protocols approved by the institutional animal care and use committee.

[6] = system: HSPCs (LT-HSC, ST-HSC, MPP and CD150HSC) in the bone marrow; assay: ABC294640 treatment of C57BL/6J mice during homeostasis: HSPC numbers and cell cycle; format: in vivo, mouse; conditions: for HSC pool / HSC quiescence (cell cycle analysis of CD150 HSCs): vs vehicle
Excerpt: as §1, §2, §5, §4

[7] = system: white blood cells and platelets; assay: Recovery of blood cells after 5-fluorouracil or radiation-induced injury; format: in vivo, mouse
[8] = system: functional HSCs (engrafted donor cells in PB); assay: Competitive repopulation (serial transplantation) of bone marrow cells from mice after 5 FU and ABC294640 treatment; format: in vivo, mouse; conditions: for increase of reconstitution (engrafted donor cells): at 16 weeks, vs vehicle treated bone marrow cells
Procedure: as §7, with “For lineage analysis of peripheral blood, monoclonal antibodies to CD45.1 (A20, eBioscience), CD45.2 (104, Biolegend), CD3, B220, Mac-1 and Gr1 were used. 2.0×10^5 CD45.2” for “2.0×10^5 CD45.2”, “of transplantation. Every 4 weeks after transplantation, peripheral blood was collected from the submandibular vein. Hematopoietic repopulation was measured from donor-derived blood cells (CD45.2) or human-derived blood cells (human CD45).” for “of transplantation.”

Pdk3 expression in HSPCs = assay: Pdk3 mRNA levels and immunoblotting in HSCs treated with inhibitors; format: cell-based, mouse
Procedure: (§8) The same number of cells from each population to be analyzed were sorted into PBS with 2% FBS. The cells then were washed with PBS and Lysised by RIPA. Equal amounts of protein extracts were fractionated by 12.5% SDS-PAGE and transferred to a PVDF membrane (IPVH00010, Merck Millipore). After blocked with 5% non-fat milk in Tris-buffered saline with Tween-20 (TBST, pH 7.6) for 1 h at room temperature, the membranes were incubated with primary antibodies anti-phospho-PDHE1-A type I (Ser293) (rabbit, 1:1000, ABS204, Merck Millipore), anti-Sphk2 (rabbit, 1:1000, 17096, Proteintech), anti-PDK3 (rabbit, 1:1000, 4970s, Proteintech), or anti-βactin (rabbit, 1:1000, 2118, Cell Signaling Technology), or with primary antibodies anti-PDK3 (rabbit, 1:1000, 12215, Proteintech), anti-β-actin (rabbit, 1:1000, 4970s, Cell Signaling Technology), overnight at 4° C. and then incubated with secondary antibodies (rabbit, 1:10,000, W401B, Promega) for 1 h at room temperature, which was detected by exposure to x-ray film, or by digital imaging with a charge-coupled device camera system (Odyssey Fc). The images shown are representative of images from at least three experiments.

Pdk3 = assay: Knock-down of Pdk3 in HSCs by siRNA; format: cell-based, mouse
Procedure: as §6
as §8, with “experiments. […]” for “experiments.”

[9] = 18-month old mice, treatment for 10 weeks, vs vehicle
[10] = 16 weeks after transplantation in NSG mice
[11] = one month after transplantation
[12] = ABC294640 25 mg/kg intraperitoneal vs vehicle, bone marrow
[13] = after stimulation of the chemotherapeutic drug 5-fluorouracil
[14] = after the stimulation of radiation
[15] = donor-derived lineage cells at 16 weeks after transplantation

O=C(NCc1ccncc1)C12CC3CC(C1)CC(c1ccc(Cl)cc1)(C3)C2 [ABC294640, 3-(4-chloro-phenyl)-adamantane-1-carboxylic acid (pyridin-4-ylmethyl)-amide]
ROS level in CD150 HSCs ([1]; day 14 after 5 FU treatment): markedly reduced
increase of CD150 HSC number ([1]; day 14 post 5 FU): 2.2 fold
increase of LT-HSC number ([1]; day 14 post 5 FU): 2.2 fold
increase of ST-HSC number ([1]; day 14 post 5 FU): 1.6 fold
CD150 HSC quiescence (aged HSPCs; [9]): preserved
HSPC pool (aged HSPCs; [9]): significantly expanded
increase of CD41- HSC population (aged HSPCs; [9]): 2.2 fold
increase of CD150low HSC population (aged HSPCs; [9]): 3.6 fold
reduction of DNA damage in CD150 HSPCs (aged HSPCs; [9]): 43.7%
reduction of ROS level in CD150 HSPCs (aged HSPCs; [9]): 63%
lymphopoiesis in peripheral blood (aged HSPCs; aged mice, vs vehicle): markedly increased lymphopoiesis
myeloid skewing in peripheral blood (aged HSPCs; aged mice, vs vehicle): suppressed myeloid skewing
colony-forming progenitor frequency in bone marrow cells (aged HSPCs; aged mice, vs vehicle treated controls): significantly higher
lymphopoiesis (both B and T cells in recipients) [2, 10]: improved lymphopoiesis
multilineage potential [2, 10]: with multilineage potential
myeloid skewing [2, 10]: reduction in myeloid skewing
increase of reconstitution (human-derived blood cells) ([2]; 16 weeks post transplantation in NSG mice, vs vehicle cultured cells): 1.76 fold
increase of platelets in PB ([3]; 28 days after transplantation): 2.6 fold
increase of white blood cells in PB ([3]; 28 days after transplantation): 1.9 fold
increase of donor derived CD150 HSC [3, 11]: 2.2 fold
increase of donor derived LT-HSC [3, 11]: 2.2 fold
increase of donor derived ST-HSC [3, 11]: 1.6 fold
survival [4]: significantly prolonged; also recorded: notably increased survival
increase of human HSC numbers [5]: 1.4 fold
increase of CD150 HSC number [6, 12]: 1.7 fold
increase of LT-HSC number [6, 12]: 2.1 fold
HSC pool [6]: expanded HSPC pool
HSC quiescence (cell cycle analysis of CD150 HSCs) [6]: increased quiescence
HSC pool ([6]; listed as ABC294460): expands HSC pool
HSC quiescence (cell cycle analysis of CD150 HSCs) ([6]; listed as ABC294460): promotes HSC quiescence
recovery of platelets [7, 13]: significantly accelerated
recovery of white blood cells [7, 13]: significantly accelerated
recovery of platelets [7, 14]: significantly accelerated
recovery of white blood cells [7, 14]: significantly accelerated
lymphopoiesis in recipients [8, 15]: markedly promoted lymphopoiesis
myeloid skewing in recipients [8, 15]: suppressed myeloid skewing
increase of reconstitution (engrafted donor cells) ([8]; primary transplantation): 1.7 fold
increase of reconstitution (engrafted donor cells) ([8]; secondary transplantation): 1.5 fold
increase of reconstitution (engrafted donor cells) ([8]; tertiary transplantation): 1.9 fold
Pdk3 expression in HSPCs (Pdk3 expression in HSPCs): could upregulate Pdk3 expression

siRNA: siRNAs (GGACCTGCATCATGAACAATG, SEQ ID NO. 1) against mouse Pdk3 cloned into lentivirus pLKO.1-puro vector
HSPC activity (myeloerythroid-colony-forming progenitors) (Pdk3; Sphk2 deficient HSCs): compromised
PDH-E1α phosphorylation (Pdk3; control and Sphk2 deficient HSCs, immunoblotting): reduced
